{
  "source": "patent US9326972B2",
  "about": "“Use of phenylmethimazoles, methimazole derivatives, and tautomeric cyclic thiones for the treatment of autoimmune/inflammatory diseases associated with toll-like receptor overexpression” (Ohio University, priority 2004, dated 2016)",
  "key": {"IRF-3": {"system": "IRF-3", "test": "IRF-3 transactivation cis reporter in FRTL-5 thyrocytes", "format": "cell-based, rat", "conditions": "FRTL-5, 6 hours, 0.5 mM C-10", "description": "FIG. 5. Phenylmethimazole (CIO) and Methimazole (MMI) inhibit the ability of Poly (I:C), lipopolysaccharide (LPS) and IL-1β to increase IFN-β gene expression (Top Left) and IRF-3 transactivation (Top Right) in FRTL-5 thyrocytes. (Top Left) Cells were co-transfected with IFNβ-Luc and control vector (pRLTk-Int), then treated with or without (−) Poly (I:C) (100 μg/ml), LPS (100 ng/ml), or IL-1β (10 ng/ml) in the presence of the vehicle (DMSO) alone (−), C10, or MMI for 6 hours. Data was obtained with the Dual Luciferase Assay system. (Top Right) Cells were co-transfected with Gal4 DBD/IRF-3 and Gal4-Luc then treated with nothing (−), poly (I:C), LPS, or IL-1β as in (Top Left) in the presence of DMSO or C10 for 6 hours. Data was obtained by Luciferase assay. Also shown is a graphic depiction (Bottom) of how the cis reporting system is working. Data are representative of multiple experiments.\nWe measured the ability of C10 to inhibit IRF-3 transactivation activity in FRTL-5 thyrocytes, using the IRF-3 cis reporter system (FIG. 5, bottom).\nPlasmids for Reporter Gene Assays. Human IRF-3 was amplified from human cDNA and cloned into pCR 2.1 by the TOPO/TA (Invitrogen, Carlsbad, Calif.) cloning method, and then sequenced. IRF-3 was then excised by EcoRI digestion and subcloned into pCMV-BD (Stratagene, La Jolla, Calif.) for use in transactivation assays. […]"}, "Stat1": {"system": "Stat1", "test": "LPS-induced Stat1 phosphorylation in RAW 264.7 macrophages (immunoblot)", "format": "cell-based, mouse"}, "NOD mice": {"system": "NOD mice", "test": "Glucosuria in NOD mice, infection/Coxsackie virus-induced Type 1 diabetes", "format": "in vivo, mouse", "description": "Mice were housed in germ free facilities, termed clean, or normal facilities where viral infections can occur, termed dirty. Animals showing urine Tes-Tape positivity greater than 1+ are considered positive and to have diabetes (L. S. Wicker, et al., Diabetes, 35:855-60 (1986)). In experiments in a “dirty” animal facility, C10 was effective in retarding the development of glucosuria in the NOD mice. When this was repeated in a “clean” or germ free laboratory, no effect of C10 was noted. What was noted, however, was the onset of glucosuria in the mice was much earlier in the animals maintained in “dirty” as opposed to “clean” mouse facilities. Further, in experiments with 8 mice in each group, even in a dirty facility, the injection of CVB4 Edwards Coxsackie virus advanced the expression of glucosuria (last two rows).\nInduction of Diabetes and treatment with drugs. NOD/Lt female mice were from the Jackson Laboratory (Bar Harbor, Me.). All experiments were carried out in accordance with “Guide for Care and Use of Laboratory Animals” (NIH Publication No. 85-23, revised 1985). Mice were injected with 200 μl PBS or 5×10^5 PFU of the CVB4 Edwards Coxsackie virus strain ip (D. V. Serreze, et al., J Virol, 79:1045-52 (2005)). Mice were treated daily with i/p injections of C-10, MMI, 2.5% DMSO(C10 carrier control), or PBS (MMI carrier control). After injections, blood and urinary glucose levels were monitored weekly using Chemstrips (Boehringer Mannheim). Consecutive values of >240 mg/dl on two occasions >24 h apart were considered diagnostic of diabetes. Experiments used 8 mice/group in up to 3 experiments."}, "serum cytokines": {"system": "serum cytokines", "test": "Serum pro-inflammatory cytokines in LPS-treated mice (ELISA)", "format": "in vivo, mouse", "conditions": "LPS-treated mice of Table 5", "description": "Quantification of pro-inflammatory cytokines in blood: The cytokines TNF-α, IL-1β, IL-6, IFN-γ and IL-12 were quantified in serum using ELISA techniques. Blood was collected from the inner canthus of the eye under anesthesia and serum saved at −20° C. until use. The ELISA kits were from R&D System and the results were expressed in pg/ml serum."}, "RAW 264.7 cells": {"system": "RAW 264.7 cells", "test": "LPS-induced cytokine mRNA in RAW 264.7 macrophages (real-time PCR, Northern)", "conditions": "RAW 264.7, LPS 1 μg/mL"}, "[1]": {"conditions": "+ CVB4 Edwards Coxsackie virus, Dirty facility"}, "[2]": {"conditions": "1 hour, real-time PCR vs DMSO control"}, "[3]": {"conditions": "3 hours, real-time PCR vs DMSO control"}},
  "note": "Where “and” joins values, the source holds several entries; their conditions need not be identical. Equal values may be shown once.",
  "data": [
    {"smiles": "Cn1c(-c2ccccc2)cnc1S", "note": "[Compound C10, 5-Phenylmethimazole]", "values": [
      {"measurement": "IRF-3 transactivation by poly (I:C), LPS, or IL-1β", "setting": "IRF-3", "value": "inhibited"},
      {"measurement": "LPS induced Stat1 phosphorylation in cytoplasmic and nuclear fractions", "setting": "Stat1; RAW 264.7", "value": "reduce"},
      {"measurement": "Stat1 serine phosphorylation at residue 727", "setting": "Stat1; RAW 264.7, LPS 500 ng/mL 3 hours, 0.5 mM C10", "value": "reduce"},
      {"measurement": "glucosuria and death in Coxsackie's virus induced NOD mouse model of diabetes", "setting": "NOD mice", "value": "effective in retarding glucosuria and death"},
      {"measurement": "Glucosuria % of Total, Week 1", "setting": "NOD mice; [1]", "value": "0 % of Total"},
      {"measurement": "Glucosuria % of Total, Week 4", "setting": "NOD mice; [1]", "value": "0 % of Total"},
      {"measurement": "Glucosuria % of Total, Week 8", "setting": "NOD mice; [1]", "value": "20 % of Total"},
      {"measurement": "Glucosuria % of Total, Week 12", "setting": "NOD mice; [1]", "value": "30 % of Total"},
      {"measurement": "Glucosuria % of Total, Week 1", "setting": "NOD mice; Clean facility", "value": "0 % of Total"},
      {"measurement": "Glucosuria % of Total, Week 4", "setting": "NOD mice; Clean facility", "value": "0 % of Total"},
      {"measurement": "Glucosuria % of Total, Week 8", "setting": "NOD mice; Clean facility", "value": "0 % of Total"},
      {"measurement": "Glucosuria % of Total, Week 12", "setting": "NOD mice; Clean facility", "value": "20 % of Total"},
      {"measurement": "Glucosuria % of Total, Week 16", "setting": "NOD mice; Clean facility", "value": "40 % of Total"},
      {"measurement": "Glucosuria % of Total, Week 20", "setting": "NOD mice; Clean facility", "value": "100 % of Total"},
      {"measurement": "Glucosuria % of Total, Week 1", "setting": "NOD mice; Dirty facility", "value": "0 % of Total"},
      {"measurement": "Glucosuria % of Total, Week 4", "setting": "NOD mice; Dirty facility", "value": "0 % of Total"},
      {"measurement": "Glucosuria % of Total, Week 8", "setting": "NOD mice; Dirty facility", "value": "0 % of Total"},
      {"measurement": "Glucosuria % of Total, Week 12", "setting": "NOD mice; Dirty facility", "value": "0 % of Total"},
      {"measurement": "serum cytokine levels (IL-1β, IL-6, TNF-α, IFN-γ, IL-12) by ELISA", "setting": "serum cytokines", "value": "reduced these cytokine levels to levels in normal control mice"},
      {"measurement": "reduction in LPS-increased TNF-α", "setting": "RAW 264.7 cells; 1 or 6 hours, real-time PCR", "value": "no reduction"},
      {"measurement": "decrease in LPS-increased IFN-β gene expression", "setting": "RAW 264.7 cells; [2]", "value": 8, "unit": "fold"},
      {"measurement": "decrease in LPS-induced IL-1β", "setting": "RAW 264.7 cells; [2]", "value": 11, "unit": "fold"},
      {"measurement": "decrease in LPS-increased IL-6", "setting": "RAW 264.7 cells; [3]", "value": "16 fold and > 16 fold"},
      {"measurement": "reduction in LPS-increased TNF-α", "setting": "RAW 264.7 cells; [3]", "value": 4, "unit": "fold"},
      {"measurement": "reduction in LPS-induced IL-12 p40", "setting": "RAW 264.7 cells; 6 hours, real-time PCR vs DMSO control", "value": 16, "unit": "fold"}
    ]}
  ]
}
